Marks after values point to notes of the source that are not given here.
What was measured:
[1] = test system: LPS-induced acute lung injury mouse model; assay: LPS-induced acute lung injury model in mouse (Example 6); assay type: in vivo, mice; conditions: 10 nmol/kg i.p.; for Mean (SEM) Lung Weight: normalized to body weight
Description: The effect of the peptides of the current invention on acute lung injury can be assessed in an LPS-induced acute lung injury mouse model by monitoring outcomes such as lung weight, fluid accumulation, cytokine secretion in blood or bronchoalveolar lavage fluid (BALF), neutrophil infiltration into lung tissues, and assessment of acute lung injury score by histopathology. Acute lung injury was induced in male C57BL/6 mice (6 to 8 weeks old) by intratracheal administration of 40 μL lipopolysaccharide (LPS) (Sigma Aldrich, St. Louis, Mo.) in PBS at 5 mg/kg. Control animals received intratracheal PBS alone. […] Treatments were administered 1 h prior to LPS for animals designated for sacrifice at 4 h after LPS, or at both 1 h prior to and 6 h after LPS for animals designated for sacrifice at 24 h after LPS. At 4 or 24 hours post LPS administration, tissues were harvested. Lungs were weighed, flushed with Hanks Buffer to provide bronchoalveolar lavage fluid (BALF). Lungs were fixed in 10% neutral buffered formalin (NBF) for histopathology. Tissue slides were stained with hematoxylin and eosin (H&E) and evaluated and scored with light microscopy of 5 representative microscopic fields (100× magnification) scoring on a 0-5 scale using standard methods (Matute-Bello G et al 2011. An Official American Thoracic Society Workshop Report: Features and Measurements of Experimental Acute Lung Injury in Animals. Am J Respir Cell Mol Biol 44:725-38). The average score for five fields was calculated for each animal. Levels of pro-inflammatory cytokines in BALF were determined using a meso scale discovery (MSD) system. Data for test peptides were compared to the vehicle control group. Lung weights were normalized to body weight.

[2] = test system: LPS-induced acute lung tissue damage; conditions: animals; Petrescu et al. 2010; cited from earlier work
[3] = test system: LPS-induced tissue damage in the liver; conditions: rats; Zhou et al. 2018; cited from earlier work
[4] = biological target: T1, Apelin Receptor (APJ) (Homo sapiens, UniProt P35414); assay: Activation of Ras in cultured cells overexpressing APJ; assay type: cell-based; conditions: 50 μM peptide, 1 min; 100 nM Pyr-Apelin-13 = positive control
T1 construct: host or cells: CHO-K1 AGTRL1 Gi cells
T1 sequence (P35414 1-380): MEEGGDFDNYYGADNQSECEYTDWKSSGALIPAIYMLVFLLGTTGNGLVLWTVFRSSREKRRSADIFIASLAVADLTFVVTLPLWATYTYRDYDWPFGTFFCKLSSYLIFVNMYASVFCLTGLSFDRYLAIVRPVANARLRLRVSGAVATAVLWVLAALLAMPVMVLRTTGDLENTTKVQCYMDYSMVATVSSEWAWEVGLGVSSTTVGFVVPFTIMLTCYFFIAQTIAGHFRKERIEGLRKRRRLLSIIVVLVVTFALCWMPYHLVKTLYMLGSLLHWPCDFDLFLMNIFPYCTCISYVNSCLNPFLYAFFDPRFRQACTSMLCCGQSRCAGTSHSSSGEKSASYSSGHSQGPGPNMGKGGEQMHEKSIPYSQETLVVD
Description: Peptides were initially prepared as 100× stocks in H2O. […] Following a 1 min incubation, the cells were placed on ice, the supernatant was removed, and washed twice with cold HBSS. The HBSS was removed and the cells were immediately lysed in 150 μl/well of lysis buffer included with Active Ras Detection kit (Cell Signaling Technology; Danvers, Mass.); lysis buffer was supplemented with 1 mM PMSF (Millipore-Sigma; Saint Louis, Mo.) and Halt Protease/Phosphatase Inhibitor Cocktail (Thermo-Fisher; Waltham, Mass.) prior to use. The wells were immediately scraped and lysates transferred to microfuge tubes. The samples were then placed on ice for 10 min. […] Visualization and quantification of Ras recovery (GTP-bound/active Ras) in samples were performed with Azure Biosystems C400 Imager and AzureSpot analysis software (Dublin, Calif.). […] Each data point represents the average of duplicate assays.

[5] = histopathology, 0-5 scale, 24 h after LPS

## CSCC[C@H](NC(=O)[C@@H]1CCCN1C(=O)CNC(=O)[C@H](CCCCN)NC(=O)[C@H](Cc1c[nH]cn1)NC(=O)[C@H](CO)NC(=O)[C@H](CC(C)C)NC(=O)[C@H](CCCNC(=N)N)NC(=O)[C@@H]1CCCN1C(=O)[C@H](CCCNC(=N)N)NC(=O)[C@@H](N)CCC(N)=O)C(=O)N1CCC[C@H]1C(=O)N[C@@H](Cc1ccccc1)C(=O)O [Apelin-13]
[1]; BALF, 4 h after LPS
  Pro-inflammatory Cytokine Level IFNγ: 0.04 pg/mL
  Pro-inflammatory Cytokine Level IL-1β: 123 pg/mL
  Pro-inflammatory Cytokine Level IL-6: 4540 pg/mL
  Pro-inflammatory Cytokine Level IL-17-A: 0.87 pg/mL
  Pro-inflammatory Cytokine Level IL-17-C: 1.84 pg/mL
  Pro-inflammatory Cytokine Level IL-23: 0.68 pg/mL
  Pro-inflammatory Cytokine Level KC/GRO: 3210 pg/mL
  Pro-inflammatory Cytokine Level TNFα: 15500 pg/mL
[1]; [5]
  Mean (SEM) Alveolar Neutrophil Infiltration Score: 1.40 (0.21)
  Mean (SEM) Interstitial Neutrophil Infiltration Score: 1.13 (0.11)
[1]; histopathology, 24 h after LPS
  Mean (SEM) Composite Lung Injury Score: 2.58 (0.29)
[1]; 4 h after LPS
  Mean (SEM) Lung Weight: 1.03 (0.03)** g
[1]; 24 h after LPS
  Mean (SEM) Lung Weight: 1.32 (0.03)* g
[2]
  Pulmonary vascular leakage resulting from LPS-induced acute lung tissue damage (in words): reduce pulmonary vascular leakage
[3]
  Tissue damage in the liver induced by LPS (in words): attenuated tissue damage in the liver

## (PEG12)KRRLLGLVFQSLCG(dA) [SEQ ID NO: 37 HCl salt] (KRRLLGLVFQSLCGA; N-terminal PEG12, C-terminal D-Ala, HCl salt; (1)..(1) PEG12; (15)..(15) D-Ala)
[4]
  GTP-Ras (% of Positive Control): 33.2%

Reference: patent US20230218710A1, “METHOD OF TREATING CORONAVIRUS INFECTIONS” (priority 2020, published 2023)
